Holding throughout (format): in vivo
For experiment [1], the system named is GPx-1 (+/+)- and GPx-1 (−/−)-mice. Put plainly: MA-induced hyperthermia (rectal temperature). Conditions: PKC inhibitors intra-striatal (doses of Table 1); MA 8 mg/kg i.p. x4; GPx-1 (+/+) and GPx-1 (−/−) mice. As to the method: (§1) The mice received four times of MA (8 mg/kg, ip) or saline as a 2 hr-time interval. Chemicals (AME, EBS, and PKC inhibitors) were administrated for 5 consecutive days (twice daily), and were given 2 times at 4 hr and 30 min before the first MA injection as shown in the experimental schedule. Animals were sacrificed at 4 hrs and 3 days after the final MA administration.
Rectal temperature was measured in the MA- or saline-treated mice. Measurement was performed at constant daytime intervals starting at 9:00 A.M. to avoid the influence on circadian variations. Rectal temperature was measured by inserting a thermometer probe lubricated with oil at least 3 cm into the rectum of the mice. To prevent sudden movements occurring especially in MA-treated mice, animals were gently handled with a wool glove while their tail was moved to allow the probe insertion. This was done to prevent the effects of restrain stress on rectal temperature. When the attempt to insert probe was not successful (i.e., sudden movements of the animal or the need to restrain the mouse), the animal was excluded from the groups.

For experiment [2] the test system is unchanged. The experiment can be described thus: Locomotor activity after MA. Conditions: PKC inhibitors intra-striatal (chelerythrine 0.2 ug/head, rottlerin 3.0 ug/head significant); MA 8 mg/kg i.p. x4; GPx-1 (+/+) and (−/−) mice. As to the method:
as §1
Locomotor activity was measured for 30 min 3 days after the last MA administration using an automated video-tracking system (Noldus Information Technology, Wagenin, The Netherlands). Four test boxes (40×40×30 cm high) were operated simultaneously by an IBM computer. Mice were studied individually during locomotion in each test box, where they were adapted for 5 min before starting the experiment. […] The distance traveled in cm by the animals in horizontal locomotor activity was analyzed. Data were collected and analyzed between 09:00 and 17:00 h (Kim et al., 2001).

For experiment [3] the test system is unchanged. Put plainly: Rota-rod test after MA. Conditions: PKC inhibitors intra-striatal (chelerythrine 0.2 ug/head, rottlerin 3.0 ug/head significant); MA 8 mg/kg i.p. x4; GPx-1 (+/+) and (−/−) mice. How it is done:
as §1
The apparatus (Ugo Basile model 7650, Comerio, VA, Italy) consisted of a base platform and a rotating rod with a nonslippery surface. The rod was placed at a height of 15 cm from the base. The rod, 30 cm in length, was divided into 5 equal sections by 6 opaque disks (so that the subjects cannot be distracted by one another) To assess motor performance, the mice first trained on the apparatus 2 minutes at a constant rate of 4 r.p.m. per 30 s prior to the test. The test was performed 30 minutes after training and an accelerating paradigm was applied, starting from a rate of 4 r.p.m. to a maximum speed of 40 r.p.m., then the rotation speed was kept constant at 40 r.p.m. for a maximum of 300 s. The duration for which the animal could maintain balance on the rotating drum was measured as the rotarod latency, with a maximal cut-off time of 300 s.

On to `O=c1cc(O)cc(/C=C/c2ccc(O)c(O)c2)o1` [hispidin], for which the “effect on MA-induced hyperthermia” value in experiment [1] is “did not show any significant effect”. Moreover, in experiment [2], the “effect on MA-induced impairment in locomotor activity” value was “did not affect MA-induced behavioral impairments”. In experiment [3], the “effect on MA-induced impairment in rota-rod performance” value is “did not affect MA-induced behavioral impairments”.

For the molecule `Cn1c2ccccc2c2c3c(c4c5ccccc5n(CCC#N)c4c21)CNC3=O` [Go 6976], the “effect on MA-induced hyperthermia” value in experiment [1] is on record as “did not show any significant effect”. Further, the “effect on MA-induced impairment in locomotor activity” value in experiment [2] is “did not affect MA-induced behavioral impairments”. Besides, the “effect on MA-induced impairment in rota-rod performance” value in experiment [3] is “did not affect MA-induced behavioral impairments”.

These data come from US20120328696A1, “ANTI-PARKINSONIAN COMPOUND ACETYLSALICYLIC ACID MALTOL ESTER” (Hutecs Korea Pharmaceutical Co., Ltd., priority 2008, published 2012).
